Measurements as given in ChEMBL document CHEMBL2073935, “Cloning and functional characterization of a rat renal organic cation transporter isoform (rOCT1A)” (J Biol Chem, 1997).

Key:
[1] = target: T1, Solute carrier family 22 member 1 (Rattus norvegicus, UniProt Q63089); test: TP_TRANSPORTER: inhibition of TEA uptake (TEA: 500 uM, PAH: 5000 uM) in OCT1A expressing Xenopus laevis oocytes; format: functional, cell-based; details: oocyte
T1 sequence (Q63089 whole entry): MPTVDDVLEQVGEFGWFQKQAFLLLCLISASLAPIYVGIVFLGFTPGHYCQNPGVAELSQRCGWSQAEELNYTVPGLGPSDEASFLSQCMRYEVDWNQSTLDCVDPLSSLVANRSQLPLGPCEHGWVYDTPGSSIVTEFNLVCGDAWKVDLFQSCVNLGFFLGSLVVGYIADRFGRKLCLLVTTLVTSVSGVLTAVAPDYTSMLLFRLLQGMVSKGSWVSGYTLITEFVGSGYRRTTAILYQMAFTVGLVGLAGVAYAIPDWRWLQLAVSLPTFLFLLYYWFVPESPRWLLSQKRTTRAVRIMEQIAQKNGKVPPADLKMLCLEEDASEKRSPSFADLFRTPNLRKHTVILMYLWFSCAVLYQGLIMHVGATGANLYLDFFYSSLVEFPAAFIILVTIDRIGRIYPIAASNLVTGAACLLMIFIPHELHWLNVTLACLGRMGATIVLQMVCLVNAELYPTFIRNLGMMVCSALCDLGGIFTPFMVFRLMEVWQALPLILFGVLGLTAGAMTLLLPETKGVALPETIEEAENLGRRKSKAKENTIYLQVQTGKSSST

[2] = target: T1, Solute carrier family 22 member 1; test: TP_TRANSPORTER: inhibition of TEA uptake (TEA: 500 uM, Guanidine: 5000 uM) in OCT1A expressing Xenopus laevis oocytes; format: functional, cell-based; details: oocyte
[3] = target: T1, Solute carrier family 22 member 1; test: TP_TRANSPORTER: inhibition of TEA uptake (basolateral to cell) (TEA: 500 uM, NMN: 5000 uM) in OCT1A expressing Xenopus laevis oocytes; format: functional, cell-based; details: oocyte
[4] = target: T1, Solute carrier family 22 member 1; test: TP_TRANSPORTER: inhibition of TEA uptake (TEA: 500 uM, Procainamide: 5000 uM) in OCT1A expressing Xenopus laevis oocytes; format: functional, cell-based; details: oocyte
[5] = substrate: CC[N+](CC)(CC)CC; test: cells, lysate or membranes named

In the case of Nc1ccc(C(=O)NCC(=O)O)cc1 [AMINOHIPPURIC ACID], the Activity [1] is reported as “inhibitor [+]”.

With N=C(N)N [GUANIDINE] the Activity [2] was “inhibitor [+]”.

CNC(=O)c1cccnc1 [NICOTINYL METHYLAMIDE] was tested, and the Activity [3] was “inhibitor [+]”.

CCN(CC)CCNC(=O)c1ccc(N)cc1 [PROCAINAMIDE] was tested, and the Activity [4] was “inhibitor [+]”.

B1: Solute carrier family 22 member 1 (Rattus norvegicus) (protein)
chain: MPTVDDVLEQVGEFGWFQKQAFLLLCLISASLAPIYVGIVFLGFTPGHYCQNPGVAELSQRCGWSQAEELNYTVPGLGPSDEASFLSQCMRYEVDWNQSTLDCVDPLSSLVANRSQLPLGPCEHGWVYDTPGSSIVTEFNLVCGDAWKVDLFQSCVNLGFFLGSLVVGYIADRFGRKLCLLVTTLVTSVSGVLTAVAPDYTSMLLFRLLQGMVSKGSWVSGYTLITEFVGSGYRRTTAILYQMAFTVGLVGLAGVAYAIPDWRWLQLAVSLPTFLFLLYYWFVPESPRWLLSQKRTTRAVRIMEQIAQKNGKVPPADLKMLCLEEDASEKRSPSFADLFRTPNLRKHTVILMYLWFSCAVLYQGLIMHVGATGANLYLDFFYSSLVEFPAAFIILVTIDRIGRIYPIAASNLVTGAACLLMIFIPHELHWLNVTLACLGRMGATIVLQMVCLVNAELYPTFIRNLGMMVCSALCDLGGIFTPFMVFRLMEVWQALPLILFGVLGLTAGAMTLLLPETKGVALPETIEEAENLGRRKSKAKENTIYLQVQTGKSSST
In the case of B1, the Km [5] is reported as 42 µM.
